Source: PubChem BioAssay AID248 (DTP/NCI, 2004)
Inconclusive results and toxic doses are left out.

Tested on: L1210 leukemia ip in BDF1 mice, survival T/C
Test: NCI In Vivo Anticancer Drug Screen. Data for tumor model L1210 Leukemia (intraperitoneal) in B6D2F1 (BDF1) mice
Conditions: endpoint: mean survival time, higher = longer survival
Procedure, shortened: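 In this screen, tumor-bearing mice given compound are compared to those given vehicle, and their survival values are reported as a treated-to-control quotient.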

[1] = dose: 100.0 mg/kg/injection, schedule: Q04DX003 (ip), vehicle: Klucel (hydroxypropylcellulose) (HPC)
[2] = dose: 100.0 mg/kg/injection, schedule: Q04DX003 (ip), vehicle: saline
[3] = dose: 100.0 mg/kg/injection, schedule: Q01DX001 (ip), vehicle: saline
[4] = dose: 200.0 mg/kg/injection, schedule: Q01DX001 (ip), vehicle: saline
[5] = dose: 400.0 mg/kg/injection, schedule: Q01DX001 (ip), vehicle: saline
[6] = dose: 50.0 mg/kg/injection, schedule: Q01DX001 (ip), vehicle: saline

For Cc1nc(N)[nH]c(=O)c1CCCNc1ccc(CCC2(CCl)OCCO2)cc1, the T/C (dose: 50.0 mg/kg/injection, schedule: Q01DX Z (ip), vehicle: carboxymethylcellulose (CMC)) was 98 % of control, the T/C (dose: 100.0 mg/kg/injection, schedule: Q01DX Z (ip), vehicle: carboxymethylcellulose (CMC)) was 101 % of control and the T/C (dose: 200.0 mg/kg/injection, schedule: Q01DX Z (ip), vehicle: carboxymethylcellulose (CMC)) was 101 % of control. For the same compound, the T/C (dose: 400.0 mg/kg/injection, schedule: Q01DX Z (ip), vehicle: carboxymethylcellulose (CMC)) was 90 % of control.

In the case of CCCCN(CCCC)S(=O)(=O)CCl, the T/C (dose: 100.0 mg/kg/injection, schedule: Q04DX002 (ip), vehicle: saline with Tween-80) is reported as 116 % of control, the T/C (dose: 200.0 mg/kg/injection, schedule: Q04DX002 (ip), vehicle: saline with Tween-80) is reported as 108 % of control and the T/C (dose: 400.0 mg/kg/injection, schedule: Q04DX002 (ip), vehicle: saline with Tween-80) is reported as 105 % of control.

With S=c1sscc1-c1ccccc1 the T/C (dose: 50.0 mg/kg/injection, schedule: Q04DX003 (ip), vehicle: Klucel (hydroxypropylcellulose) (HPC)) was 95 % of control, the T/C (dose: 100.0 mg/kg/injection, schedule: Q01DX009 (ip), vehicle: Klucel (hydroxypropylcellulose) (HPC)) was 108 % of control and the T/C [1] was 111 % of control. The T/C (dose: 200.0 mg/kg/injection, schedule: Q01DX009 (ip), vehicle: Klucel (hydroxypropylcellulose) (HPC)) was 112 % of control, the T/C (dose: 200.0 mg/kg/injection, schedule: Q04DX003 (ip), vehicle: Klucel (hydroxypropylcellulose) (HPC)) was 95 % of control and the T/C (dose: 400.0 mg/kg/injection, schedule: Q01DX009 (ip), vehicle: Klucel (hydroxypropylcellulose) (HPC)) was 110 % of control. For the same compound, the T/C (dose: 400.0 mg/kg/injection, schedule: Q04DX003 (ip), vehicle: Klucel (hydroxypropylcellulose) (HPC)) was 98 % of control.

CN(C)CCCN1c2ccccc2Sc2c(Cl)cc(Cl)cc21 was tested, and the T/C (dose: 6.25 mg/kg/injection, schedule: Q01DX009 (ip), vehicle: saline) was 97 % of control, the T/C (dose: 12.5 mg/kg/injection, schedule: Q01DX009 (ip), vehicle: saline) was 103 % of control and the T/C (dose: 25.0 mg/kg/injection, schedule: Q01DX009 (ip), vehicle: saline) was 101 % of control. The T/C (dose: 25.0 mg/kg/injection, schedule: Q04DX003 (ip), vehicle: saline) was 94 % of control, the T/C (dose: 50.0 mg/kg/injection, schedule: Q01DX009 (ip), vehicle: saline) was 104 % of control and the T/C (dose: 50.0 mg/kg/injection, schedule: Q04DX003 (ip), vehicle: saline) was 113 % of control. For the same compound, the T/C [2] was 118 % of control.

With O=C(O)c1ccc(NC(Nc2ccc(C(=O)O)cc2)C(=O)c2ccccc2)cc1 the T/C [3] was 95 % of control, the T/C [4] was 89 % of control and the T/C [5] was 101 % of control.

In the case of CC(=O)OCC1CCC(NC(=O)N(CCF)N=O)CC1 (stereo unspecified), the T/C (dose: 9.0 mg/kg/injection, schedule: Q01DX001 (ip), vehicle: saline with Tween-80) is reported as 106 % of control, the T/C (dose: 13.0 mg/kg/injection, schedule: Q01DX001 (ip), vehicle: saline with Tween-80) is reported as 110 % of control and the T/C (dose: 20.0 mg/kg/injection, schedule: Q01DX001 (ip), vehicle: saline with Tween-80) is reported as 100 % of control. For the same compound, the T/C (dose: 45.0 mg/kg/injection, schedule: Q01DX001 (ip), vehicle: saline with Tween-80) was 353 % of control.

In the case of O=C1CC2C3Nc4ccccc4C3CCN2C2=C1CC(OC(=O)c1ccccc1)CC2 (stereo unspecified), the T/C (dose: 12.5 mg/kg/injection, schedule: Q01DX009 (ip), vehicle: saline sonified) is reported as 96 % of control, the T/C (dose: 25.0 mg/kg/injection, schedule: Q01DX009 (ip), vehicle: saline sonified) is reported as 98 % of control and the T/C (dose: 50.0 mg/kg/injection, schedule: Q01DX009 (ip), vehicle: saline sonified) is reported as 103 % of control. For the same compound, the T/C [1] was 95 % of control.

In the case of CCOC(=O)CCC(NC(=O)c1ccc(NCc2nnc3nc(N)n4nnnc4c3n2)cc1)C(=O)OCC (stereo unspecified), the T/C (dose: 25.0 mg/kg/injection, schedule: Q01DX001 (ip), vehicle: saline with Tween-80) is reported as 96 % of control, the T/C (dose: 50.0 mg/kg/injection, schedule: Q01DX001 (ip), vehicle: saline with Tween-80) is reported as 109 % of control and the T/C (dose: 100.0 mg/kg/injection, schedule: Q01DX001 (ip), vehicle: saline with Tween-80) is reported as 100 % of control.

With CC(C)C(C(=O)O)c1ccccc1 (stereo unspecified) the T/C [2] was 100 % of control, the T/C (dose: 200.0 mg/kg/injection, schedule: Q04DX003 (ip), vehicle: saline) was 112 % of control and the T/C (dose: 400.0 mg/kg/injection, schedule: Q04DX003 (ip), vehicle: saline) was 107 % of control.

In the case of CC(Cc1ccccc1)Nc1ccccc1 (stereo unspecified), the T/C [6] is reported as 93 % of control, the T/C [3] is reported as 100 % of control and the T/C [4] is reported as 93 % of control. For the same compound, the T/C [5] was 93 % of control.

O=C(N/C(=C/c1ccc([N+](=O)[O-])cc1)C(=O)c1ccccc1)c1ccc([N+](=O)[O-])cc1 was tested, and the T/C [6] was 101 % of control, the T/C [3] was 103 % of control and the T/C [4] was 97 % of control. For the same compound, the T/C [5] was 90 % of control.
